These results are taken from ChEMBL document CHEMBL1123682, “5-Amino-4-(diazoacetyl)-1-beta-D-ribofuranosylimidazole, a new antileukemic agent” (J Med Chem, 1987).

pIC50: −log10 of the molar value.

For experiment [1], the system named is L1210. The experiment can be described thus: Ability to inhibit growth of L1210 cells in culture was determined. It counts as functional, cell-based. The following applies: Mus musculus, read-out: I50.
Experiment [2] has as its system HEp-2. In words: Ability to inhibit growth of human epithelial (H.Ep.-2) cells in culture. The following applies: read-out: I50. The class given is functional, cell-based.

Turning to `CC(=O)c1ncn([C@@H]2O[C@H](CO)[C@@H](O)[C@H]2O)c1N`, the pIC50 in experiment [1] is < 3.92.

`[N-]=[N+]=CC(=O)C1=NNC([C@@H]2O[C@H](CO)[C@@H](O)[C@H]2O)C1=N` (stereo partly drawn): the pIC50 is 5.52 in experiment [1] and 5.70 in experiment [2].
